Reference: article PMC8245078, “Development of novel benzofuran-isatin conjugates as potential antiproliferative agents with apoptosis inducing mechanism in Colon cancer” (Journal of Enzyme Inhibition and Medicinal Chemistry, 2021)

What was measured:
[1] = tested on: human skin fibroblast (HFF-1) normal cells; experiment: MTT cell viability assay on normal cells; format: cell-based; conditions: HFF-1, incubation for 24 h
Description: Furthermore, selective cytotoxicity of compounds 5a and 5d was studied on human skin fibroblast (HFF-1) normal cells. […]
each well, and plates were incubated for 10 minutes at room temperature. After staining, unbound dye was removed by washing five times with 1 % acetic acid and the plates were air dried. Bound stain was subsequently solubilized with 10 mM trizma base, and the absorbance was read on an automated plate reader at a wavelength of 515 nm. For suspension cells, the methodology was the same except that the assay was terminated by fixing settled cells at the bottom of the wells by gently adding 50 μL of 80 % TCA (final concentration, 16 % TCA).
Using the seven absorbance measurements [time zero, (Tz), control growth, (C), and test growth in the presence of drug at the five concentration levels (Ti)], the percentage growth was calculated at each of the drug concentrations levels. Percentage growth inhibition was calculated […]
Three dose response parameters were calculated for each experimental agent. […] The drug concentration resulting in total growth inhibition (TGI) was calculated from Ti = Tz. […]
The cytotoxicity effect of compounds on the colorectal cancer cell lines, SW620 and HT29 in addition to the normal human fibroblasts was measured by MTT (3-(4, 5-dimethylthiazol-2-yl)-2,5-diphenyltetrazolium bromide) (Sigma-Aldrich, St. Louis, MO, USA) as previously described. […]

[2] = tested on: SW-620 colorectal cancer cell line; experiment: MTT cell viability assay; format: cell-based, human; conditions: for inhibition of SW-620 cancer cells viability: 10 µM, 24 h, MTT
Description: In the present investigation a new set of benzofuran–isatin hybrids (5a–e and 7a–i) was synthesised to be evaluated for their potential anticancer activity towards two human colorectal cancer cell lines, SW-620 and HT-29. […] Both, SW-620 and HT-29 cells were treated with 10 µM of each compound for 24 h and the percent cell viability was calculated using MTT assay.
For this reason, compounds 5a and 5d were pursued for further studies. Starting with determination of IC50s and cytotoxic selectivity studies. Serial concentrations of compounds 5a and 5d were used to examine their impact on cell viability using MTT protocol. Results of concentration vs percent viability were charted, and the IC50 was calculated for SW-620 and HT-29 cell lines using Graph Pad prism 8 (Figure 4). […]
[(Ti-Tz)/Tz] x 100 for concentrations for which Ti<Tz […]
SW620 and HT29 colorectal cancer cell lines and HFF-1 fibroblast (ATCC, Rockville, USA) were used. HT29 cells were cultured and maintained in Dulbecco’s Modified Eagles Medium (DMEM) (GIBCO, by Thermo Fischer Scientific, NY, USA) supplemented with 10% fetal bovine serum (FBS), 100 units/mL penicillin, and 100 μg streptomycin. SW620 and HFF-1 cells were cultured in Roswell Park Memorial Institute medium (RPMI-1640) (GIBCO, by Thermo scientific, NY, USA) supplemented with 10% FBS and 1% penicillin and streptomycin (Napolitano et al., 2015). All cultures were incubated at 37 °C and humidified atmosphere of 5% […]
2.3. Cell Viability Assay
The cytotoxicity effect of compounds on the colorectal cancer cell lines, SW620 and HT29 in addition to the normal human fibroblasts was measured by MTT (3-(4, 5-dimethylthiazol-2-yl)-2,5-diphenyltetrazolium bromide) (Sigma-Aldrich, St. Louis, MO, USA) as previously described. Briefly, cells were seeded in 96 well culture plates at 5000/well for HT29 and 10,000/well for SW620 for 24 h. Cells were then incubated with different compounds from WAG1 series (1-15) 24h at 37 °C and humidified 5% CO2 incubator. Freshly prepared 10 μl of 3-(4,5-dimethylthiazol-2-yl)-2,5-diphenyltetrazolium bromide (MTT 5 mM) solution were added to the cells and further incubated for 2 h. Thereafter, 100 μl of dimethyl sulfoxide (DMSO) were added in each well and the crystals were dissolved through careful pipetting. In certain experiment, cells were treated different concentration of 5FU for 72 h. The absorbance of the product was measured at 540 nm using a Synergy™ 2 multi-mode microplate reader (Biotech, VA, USA). The experiments were performed in triplicate for each condition. […]
The total protein concentration was evaluated by the colorimetric
Bradford protein assay (BIO-RAD inc, CA, USA) at 595 nm absorbance. Lysates were loaded in […]

[3] = Homo sapiens, SW-620, SW-620, MTT

Compound	effect on fibroblast normal cell viability [1]	inhibition of SW-620 cancer cells viability [2]	IC50 [2, 3] [µM]	IC50 ([2]; SW-620, MTT) [µM]
Cc1c(C(=O)N/N=C2\C(=O)Nc3ccccc32)oc2ccccc12 [Compound 5a]	little effect	46%	8.7	9.4
COc1ccc2c(c1)/C(=N/NC(=O)c1oc3ccccc3c1C)C(=O)N2 [Compound 5d]	little effect	about 52%	6.5	9.8
